Experimental data reported in US20130345268A1, “Methods and Compositions for the Treatment of RAS Associated Disorders” (The Trustees of Dartmouth College, priority 2009, published 2013).
Like-named read-outs stand apart in the source and are kept apart here.

Columns and labels:
[1] = tested on: STS26T (26T, NF1 wild type MPNST/sarcoma cells); experiment: In vitro growth of NF1 wild type MPNST cells, alamar blue, dose-response; format: cell-based, human; settings: for IC50: Homo sapiens, STS-26T
Protocol: (§1) The NF1−/− MPNST line T265 used for the screen provides two additional readouts for the chemical approaches to suppress the phenotypes of NFI loss: activated Ras (Mahller et al., 2005) and activated MAPK (FIG. 1). In vitro growth assays of the two cell lines (NF1 positive and NF1 negative) are scaled down to 384 well plates. An Evotec Technologies plate::explorer uHTS system is used. MPNST cell lines T265 and STS26T in logarithmic growth phase are plated in separate 384 well plates at a density of 500 cells per well in Dulbecco's modified Eagle's medium (DMEM; Fisher Scientific; Pittsburgh, Pa.) supplemented with 10% Fetal Bovine Serum (Harlan; Indianapolis, Ind.) containing vehicle (DMSP, “Dimethyl Sulfoxide”) only or one of 13,031 candidate compounds at a concentration of 10 micromolar, a concentration of drug shown not to cause cell death of many human cell lines. The candidate compounds are selected to represent a cross section of compounds covering the diversity space resident in the available library, restricted to drug-like compounds, but evenly and consistently representative across this realm and representative of commercially available compounds. Compounds targeting GPCRs, kinases and other targets of known medical interest are also included. The cells are incubated with the compounds or 5 μg/ml doxorubicin as a positive control for 2 days. Growth is monitored by using the alamar blue method (Alley et al. 1988; Ahmed et al. 1994.) Metabolic activity of cells results in reduction of alamar blue and a large increase in alamar blue fluorescence, which correlates with cell number. Candidate compounds causing interference with fluorescence are eliminated. […] Appropriate control samples and statistical analyses are used.
(§2) Confirmed hits that decreased viability of both cell lines were identified as possible therapeutic agents. A smaller population of hits selectively affected the non-NF1 cell line. These seven confirmed “hits,” or potential therapeutic agents, were tested using the same assay method at 10 concentrations, in triplicate, to give a dose-response and to determine the AC50 (the concentration at which 50% of the maximum activity or inhibition is achieved) for each compound. Using the initial screen, seven compounds are identified showing a significant differential growth inhibition of the mutant NF1 cells relative to wild type NF1 cells.

[2] = tested on: T265 (NF1 mutant MPNST/sarcoma cells); experiment: In vitro growth of NF1 mutant MPNST cells, alamar blue, dose-response; format: cell-based; settings: Homo sapiens
Protocol: as §1, §2

[3] = tested on: U-87 MG GBM (glioblastoma) cells; experiment: Growth of glioblastoma cells in vitro, Alamar Blue; format: cell-based; settings: Homo sapiens, 72 h, U87-MG cells, three days, normalized to DMSO-treated wells, three independent experiments
Protocol: FIG. 4 depicts the effects of two compounds active in NF1−/− MPNST cells on the growth of U-87 MG GBM (glioblastoma) cells in vitro. FIG. 4a depicts the effects of the compound of Formula I(a); FIG. 4b depicts the effects of the compound of Formula IV(c). U87-MG cells were seeded in 96 well plates at a density of 1000 per well in DMEM containing 10% fetal bovine serum. The next day, medium was removed and fresh medium containing 0.1% DMSO or compound was added back. Plates were incubated for three days at 37° C., 5% CO2. Cell growth was assessed with Alamar Blue with values normalized to the DMSO-treated wells. Values are mean of three wells. The AC50 for the compound of Formula Ia was 3.77 micromolar +/−0.7. The AC50 for the compound of Formula IV(c) was 0.97 micromolar +/−0.1. AC50 was calculated using data from three independent experiments.

[4] = tested on: cells lacking Ira2 and Erg6; experiment: Growth of strains lacking Ira2 and Erg6, optical density at 595 nm; format: cell-based; settings: Synthetic Complete media, 32C, 24 h, OD 595 nm
Protocol: FIG. 3. […] Strains were grown overnight in Synthetic Complete media. 75 μL of culture at a starting optical density of 0.1 were added to a 96 well plate containing 75 μL of Synthetic Complete media with twice the desired final concentration of compound in 1% DMSO. Plates were incubated in a humidified 32C chamber, and scanned on an optical density plate reader at 595 nm after 24 h. The bars represent the mean of three wells, and the error bars represent ±2× standard error.

[5] = 48 h, Table 3, STS26T cells, alamar blue, 2 days, 10 concentrations in triplicate, read-out: 26T IC50
[6] = Table 4, NF1 wild type (26T) sarcoma cells, read-out: IC50, 26T
[7] = 48 h, Table 3, T265 cells, alamar blue, 2 days, 10 concentrations in triplicate, read-out: T265 IC50
[8] = Table 4, NF1 mutant sarcoma cells (T265), read-out: IC50, T265

IC50 [1, 5]	IC50 [1, 6]	IC50 [2, 7]	IC50 [2, 8]	26T IC50 ([1]; Table 3, STS26T cells, alamar blue, 2 days, 10 concentrations in triplicate)	Structure (SMILES)	AC50 [3]	Inhibition of growth [4]
22800 nM	22900 nM	2800 nM	2900 nM		CCc1cc(-c2ccccc2OS(=O)(=O)c2ccc3ccccc3c2)nn1CCNCCc1ccc(OC)c(OC)c1 [V]		
1000 nM		1700 nM			CCN(CC)C(=S)SCC(=O)n1c(C)cc(-c2ccccc2F)c1C [XI]		
		3000 nM		No Effect	CCCCc1ccc2nc(-c3ccccc3)cc(C(=O)NC(C(=O)NC(C)CCCN(CC)CC)C(C)C)c2c1 (centres unmarked) [III]		

Second part, the compound before the results:

Structure (SMILES)	IC50 [1, 5]	IC50 [1, 6]	IC50 [2, 7]	IC50 [2, 8]	26T IC50 ([1]; Table 3, STS26T cells, alamar blue, 2 days, 10 concentrations in triplicate)	AC50 [3]	Inhibition of growth [4]
Cc1ccc(Cn2c(=N)n(CC(O)c3ccc(Br)cc3)c3ccccc32)cc1 (centres unmarked) [VIII]	19500 nM	19500 nM	1100 nM	1100 nM			
N=C(N)SCc1cn(-c2ccccc2)nc1-c1cccc(Br)c1 [Formula Ia]	50300 nM	50300 nM	1300 nM	1300 nM		3770 nM	Inhibition of growth
Cc1ccc(NC(=O)C2=C(c3ccccc3)S(=O)(=O)CCS2(=O)=O)cc1 [Formula IV(c)]						970 nM	
Cc1ccc(Cn2c(=N)n(CC(=O)c3ccc(Br)cc3)c3ccccc32)cc1 [VII]	56 nM		78 nM				
CCc1cc(-c2ccccc2OS(=O)(=O)c2ccc3ccccc3c2)nn1CCNCCOc1ccccc1 [VI]	1900 nM		4500 nM				
